From PubChem BioAssay (NCI)
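Five compound concentrations were applied to cells in 96-well plates for 48 hours; endpoints were derived by simple linear interpolation of the resulting dose-response curve. Definition used: TGI = concentration required for complete inhibition of growth.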 *1 amine or outer side, *2 acyl side, *3 side chain or, on linkers, in order; H or OH if unused. Where a SMILES comes first, the peptide text is derived from it. Bridges are numbered along the chain shown (N, C = ends). [ ]: non-standard residue; d: D form. The star is where a group is joined. X34 = O=C(C(CCCCNO[*:3])N[*:1])[*:2]; Fmoc = O=C(OCC1c2ccccc2-c2ccccc21)*

Columns and labels:
Assay in all cases: NCI-60 cell line screen, 48 h
MCF7 breast = test system: MCF7 breast
HCT-15 colon = test system: HCT-15 colon
MDA-MB-231 breast = test system: MDA-MB-231 breast
HS 578T breast = test system: HS 578T breast
NCI/ADR-RES ovarian = test system: NCI/ADR-RES ovarian
NCI-H226 lung = test system: NCI-H226 lung
U251 CNS = test system: U251 CNS
MALME-3M melanoma = test system: MALME-3M melanoma
LOX IMVI melanoma = test system: LOX IMVI melanoma
SN12C renal = test system: SN12C renal
UO-31 renal = test system: UO-31 renal
NCI-H522 lung = test system: NCI-H522 lung
SW-620 colon = test system: SW-620 colon
M14 melanoma = test system: M14 melanoma
CCRF-CEM leukemia = test system: CCRF-CEM leukemia
UACC-257 melanoma = test system: UACC-257 melanoma
OVCAR-3 ovarian = test system: OVCAR-3 ovarian
SK-OV-3 ovarian = test system: SK-OV-3 ovarian
K-562 leukemia = test system: K-562 leukemia
HOP-92 NSCLC = test system: HOP-92 NSCLC

SMILES	TGI (MCF7 breast)	TGI (HCT-15 colon)	TGI (MDA-MB-231 breast)	TGI (HS 578T breast)	TGI (NCI/ADR-RES ovarian)	TGI (NCI-H226 lung)	TGI (U251 CNS)	TGI (MALME-3M melanoma)	TGI (LOX IMVI melanoma)	TGI (SN12C renal)	TGI (UO-31 renal)	TGI (NCI-H522 lung)	TGI (SW-620 colon)	TGI (M14 melanoma)	TGI (CCRF-CEM leukemia)	TGI (UACC-257 melanoma)	TGI (OVCAR-3 ovarian)	TGI (SK-OV-3 ovarian)	TGI (K-562 leukemia)	TGI (HOP-92 NSCLC)
COC(=O)[C@H]1COC(=O)N1	> 100 µM	> 100 µM	> 100 µM	> 100 µM	> 100 µM	> 100 µM	> 100 µM	> 100 µM	> 100 µM	> 100 µM	> 100 µM	> 100 µM	> 100 µM	> 100 µM	> 100 µM	> 100 µM	> 100 µM	> 100 µM	> 100 µM	> 100 µM
COc1cccc(Nc2nc(N)nc(N)c2N)c1	95 µM	> 100 µM	58.5 µM	> 100 µM	> 100 µM	> 100 µM	> 100 µM	> 100 µM	40.2 µM	37.8 µM	> 100 µM	> 100 µM	91.1 µM	> 100 µM	52.7 µM	> 100 µM	> 100 µM	> 100 µM	> 100 µM	> 100 µM
CSC1=NNC(SC)=NN1	0.396 µM	0.307 µM	0.458 µM	0.38 µM	> 1 µM	0.389 µM	0.319 µM	0.289 µM	0.287 µM	0.322 µM	0.328 µM	0.555 µM	0.307 µM	0.335 µM	> 1 µM	0.258 µM	0.359 µM	0.382 µM	0.308 µM	0.316 µM
CC(C)C[C@H](NC(=O)[C@H](Cc1ccc(F)cc1)NC(=O)c1ccccn1)B(O)O	0.166 µM	< 0.01 µM	< 0.01 µM	< 0.0121 µM	0.0212 µM	< 0.01 µM	0.106 µM	< 0.01 µM	< 0.01 µM	< 0.01 µM	< 0.01 µM	< 0.01 µM	< 0.01 µM	< 0.0107 µM	> 100 µM	< 0.01 µM	< 0.01 µM	1.07 µM	> 100 µM	< 0.01 µM
COC(=O)C1=C(C)NC(C)=C(C(=O)OC)C1c1ccc(N=O)cc1	37 µM	23.9 µM	25.2 µM	40.8 µM	50.9 µM	39.3 µM	32.2 µM	24.4 µM	11.6 µM	35.8 µM	26.3 µM	6.61 µM	12.9 µM	23.3 µM	> 100 µM	23.2 µM	26.9 µM	25.5 µM	> 100 µM	8.95 µM
CC(=O)c1ccc2c(c1)CC1(C2)Cc2ccc3c(c2C1=O)CCC3 (centres undefined)	72 µM	> 100 µM	> 100 µM	> 100 µM	71.9 µM	> 100 µM	> 100 µM	57 µM	> 100 µM	> 100 µM	> 100 µM	54.6 µM	> 100 µM	64.8 µM	> 100 µM	38.2 µM	> 100 µM	> 100 µM	> 100 µM	41.2 µM
CCCCCCCCCCCCCCCCCCNc1nc(=O)n(C2CC(O)C(COP(=O)(O)OCC3OC(n4ccc(N)nc4=O)C(O)C3O)O2)cc1F (centres undefined)	> 100 µM	38 µM	72.5 µM	> 100 µM	> 100 µM	> 100 µM	> 100 µM	> 100 µM	22.3 µM	> 100 µM	> 100 µM	65.3 µM	> 100 µM	> 100 µM	> 100 µM	> 100 µM	> 100 µM	> 100 µM	> 100 µM	> 100 µM
CC1(C)N=C(N)N=C(N)N1c1cccc(C(=O)Nc2ccc(S(=O)(=O)F)cc2)c1	> 100 µM	> 100 µM	> 100 µM	> 100 µM	> 100 µM	> 100 µM	> 100 µM	> 100 µM	> 100 µM	> 100 µM	> 100 µM	> 100 µM	> 100 µM	> 100 µM	> 100 µM	> 100 µM	> 100 µM	> 100 µM	> 100 µM	> 100 µM
O=c1cc(N=Nc2ccc(Cl)c(Cl)c2)[nH]c(=O)[nH]1	3.99 µM	3.31 µM	3.38 µM	13.1 µM	3.93 µM	33.2 µM	3.65 µM	4.53 µM	3.36 µM	4.79 µM	4.93 µM	2.81 µM	3.26 µM	4.08 µM	0.495 µM	6.15 µM	5.41 µM	30 µM	4.02 µM	3.07 µM
CC1=NN(c2nc(N)nc(C/C(N)=N/O)n2)C(C)(C)C1	> 100 µM	> 100 µM	> 100 µM	> 100 µM	> 100 µM	> 100 µM	> 100 µM	> 100 µM	> 100 µM	> 100 µM	> 100 µM	> 100 µM	> 100 µM	> 100 µM	> 100 µM	> 100 µM	> 100 µM	> 100 µM	> 100 µM	> 100 µM
O=S1(=O)OCCOS(=O)(=O)C1Cc1cccc2ccccc12	37.6 µM	87.1 µM	46.6 µM	84.9 µM	54.8 µM	36.3 µM	40.7 µM	31.2 µM	55.4 µM	62.2 µM	48.8 µM	47.8 µM	> 100 µM	54.9 µM	40.5 µM	34.2 µM		70.7 µM	38.2 µM	56.6 µM
NC(=O)CNC(=O)C1CCCN1C(=O)C1CCCCNOC(=O)CCC(NC(=O)OCC2c3ccccc3-c3ccccc32)C(=O)NC(Cc2c[nH]c3ccccc23)C(=O)N1 (centres undefined) (Fmoc-EW[X34]PG-NH2; ester 1-3; configuration not given here)	> 100 µM	> 100 µM	> 100 µM	> 100 µM	> 100 µM	> 100 µM	> 100 µM	> 100 µM	> 100 µM	> 100 µM	> 100 µM	> 100 µM	> 100 µM	> 100 µM	> 100 µM	> 100 µM	> 100 µM	> 100 µM	> 100 µM	> 100 µM
